From patent publication US10669289B2, “Boronic acid derivatives” (MERCK PATENT GMBH, priority 2014, dated 2020)

Experiments:
[1] = biological target: human immuno proteasome (LMP7) (Homo sapiens (Human), UniProt P28062); assay: Determination of LMP7 activity (fluorescence intensity assay, Suc-LLVY-AMC); assay type: biochemical
Experimental: Determination of LMP7 Activity:
Measurement of LMP7 inhibition is performed in 384 well format based on fluorescence intensity assay.
(§1) Purified human immuno proteasome (0.25 nM) and serial diluted compounds in DMSO (range of concentrations from 30 μM to 15 pM) or controls are incubated for 20 minutes or 120 minutes (long incubation) at 25° C. in assay buffer containing 50 mM Tris pH 7.4, 0.03% SDS, 1 mM EDTA and 1% DMSO. The reaction is initiated by the addition of the fluorogenic peptide substrate, Suc-LLVY-AMC (Bachem 1-1395), at a concentration of 40 μM. After 60 minutes of incubation at 37° C., fluorescence intensity is measured at λex=350 nm and λem=450 nm with a fluorescence reader (Perkin Elmer Envision reader or equivalent).
(§2) Unless indicated otherwise the results are obtained after incubation for 20 minutes.

[2] = biological target: human constitutive proteasome (Beta5) (Homo sapiens (Human), UniProt P28074); assay: Determination of Beta5 activity (fluorescence intensity assay, Suc-LLVY-AMC); assay type: biochemical
Experimental: Determination of Beta5 Activity:
Measurement of Beta5 inhibition is performed in 384 well format based on fluorescence intensity assay.
as §1, with “constitutive” for “immuno”, “(1.25” for “(0.25”
as §2

[3] = LMP7 versus Beta5, incubation for 20 minutes
[4] = LMP7 versus Beta5, long incubation (120 min)

| Selectivity LMP7 vs Beta5 [1, 3] | IC50 ([1]; incubation for 20 minutes) | IC50 ([2]; incubation for 20 minutes) | Selectivity LMP7 vs Beta5 [1, 4] | IC50 ([1]; long incubation (120 min)) | IC50 ([2]; long incubation (120 min)) | SMILES |
| --- | --- | --- | --- | --- | --- | --- |
| +++ (70 ≤ 100) | 50 to 500 nM | > 5 µM |  |  |  | C=CC(=O)N(CC(=O)N[C@@H](Cc1ccc(C)cc1C)B(O)O)C(C)C [Compound No. 27, [(1R)-2-(2,4-dimethylphenyl)-1-[[2-[isopropyl(prop-2-enoyl)amino]-acetyl]amino]ethyl]boronic Acid] |
| + (Selectivity < 50) | 500 to 5000 nM | > 5 µM |  |  |  | C=C(C)C(=O)N(CC)CC(=O)N[C@@H](Cc1ccccc1)B(O)O [Compound No. 28, [(1R)-1-[[2-[ethyl(2-methylprop-2-enoyl)amino]acetyl]amino]-2-phenyl-ethyl]boronic Acid] |
| +++ (70 ≤ 100) | 50 to 500 nM | > 5 µM |  |  |  | C=CC(=O)N(CC)CC(=O)N[C@@H](Cc1ccc(F)cc1)B(O)O [Compound No. 30, [(1R)-1-[[2-[ethyl(prop-2-enoyl)amino]acetyl]amino]-2-(4-fluorophenyl)ethyl]boronic Acid] |
| ++++ (100 ≤ Selectivity < 150) | < 50 nM | 0.5 to 5 µM |  |  |  | C=CC(=O)N(CC)CC(=O)N[C@@H](Cc1ccc(C)cc1)B(O)O [Compound No. 31, [(1R)-1-[[2-[ethyl(prop-2-enoyl)amino]acetyl]amino]-2-(p-tolyl)ethyl]-boronic Acid] |
| +++ (70 ≤ 100) | 50 to 500 nM | > 5 µM |  |  |  | C=C(C)C(=O)N(CC)CC(=O)N[C@@H](Cc1ccc(C)cc1C)B(O)O [Compound No. 32, [(1R)-2-(2,4-dimethylphenyl)-1-[[2-[ethyl(2-methylprop-2-enoyl)-amino]acetyl]amino]ethyl]boronic Acid] |
| +++++ (Selectivity ≥ 150) | < 50 nM | > 5 µM |  |  |  | C=CC(=O)N(C)CC(=O)N[C@@H](Cc1ccc(C)cc1C)B(O)O [Compound No. 33, [(1R)-2-(2,4-dimethylphenyl)-1-[[2-[methyl(prop-2-enoyl)amino]-acetyl]amino]ethyl]boronic Acid] |
| ++++ (100 ≤ Selectivity < 150) | 50 to 500 nM | > 5 µM |  |  |  | C=CC(=O)N(CC)CC(=O)N[C@@H](Cc1ccc(C)cc1C)B(O)O [Compound No. 34, [(1R)-2-(2,4-dimethylphenyl)-1-[[2-[ethyl(prop-2-enoyl)amino]acetyl]-amino]ethyl]boronic Acid] |
| + (Selectivity < 50) | 50 to 500 nM | > 5 µM |  |  |  | C=CC(=O)N(CC(=O)N[C@@H](Cc1ccccc1)B(O)O)C(C)C [Compound No. 35, [(1R)-1-[[2-[isopropyl(prop-2-enoyl)amino]acetyl]amino]-2-phenyl-ethyl]boronic Acid] |
| +++ (70 ≤ 100) | < 50 nM | 0.05 to 0.5 µM |  |  |  | C=CC(=O)N(CC)CC(=O)N[C@@H](Cc1coc2ccccc12)B(O)O [Compound No. 36, [(1R)-2-(benzofuran-3-yl)-1-[[2-[ethyl(prop-2-enoyl)amino]acetyl]-amino]ethyl]boronic Acid] |
| +++ (70 ≤ 100) | 50 to 500 nM | > 5 µM |  |  |  | C=CC(=O)N(CC)CC(=O)N[C@@H](Cc1ccccc1)B(O)O [Compound No. 37, [(1R)-1-[[2-[ethyl(prop-2-enoyl)amino]acetyl]amino]-2-phenyl-ethyl]boronic Acid] |
|  |  |  | ++++ (100 ≤ Selectivity < 150) | 50 to 500 nM | > 5 µM | C=CC(=O)N1CCCC[C@@H]1C(=O)N[C@@H](Cc1ccc(C)cc1C)B(O)O [Compound No. 38, [(1R)-2-(2,4-dimethylphenyl)-1-[[(2R)-1-prop-2-enoylpiperidine-2-carbonyl]amino]ethyl]boronic Acid] |
|  |  |  | ++ (50 ≤ Selectivity < 70) | 500 to 5000 nM | > 5 µM | C=CC(=O)N1CCCC[C@H]1C(=O)N[C@@H](Cc1ccc(C)cc1C)B(O)O [Compound No. 39, [(1R)-2-(2,4-dimethylphenyl)-1-[[(2S)-1-prop-2-enoylpiperidine-2-carbonyl]amino]ethyl]boronic Acid] |
|  |  |  | +++++ (Selectivity ≥ 150) | 50 to 500 nM | > 5 µM | C=CC(=O)N(CC)CC(=O)N[C@@H](Cc1ccc(Cl)cc1Cl)B(O)O [Compound No. 40, [(1R)-2-(2,4-dichlorophenyl)-1-[[2-[ethyl(prop-2-enoyl)amino]acetyl]amino]ethyl]boronic Acid] |
|  |  |  | +++++ (Selectivity ≥ 150) | < 50 nM | > 5 µM | C=CC(=O)N(CC(=O)N[C@@H](Cc1ccc(C)cc1C)B(O)O)c1cccc(F)c1F [Compound No. 41, [(1R)-1-[[2-(2,3-difluoro-N-prop-2-enoyl-anilino)acetyl]amino]-2-(2,4-dimethylphenyl)ethyl]boronic Acid] |
|  |  |  | +++++ (Selectivity ≥ 150) | < 50 nM | > 5 µM | C=CC(=O)N(CC(=O)N[C@@H](Cc1ccc(C)cc1C)B(O)O)c1cc(F)ccc1F [Compound No. 42, [(1R)-1-[[2-(2,5-difluoro-N-prop-2-enoyl-anilino)acetyl]amino]-2-(2,4-dimethylphenyl)ethyl]boronic Acid] |
|  |  |  | +++++ (Selectivity ≥ 150) | < 50 nM | > 5 µM | C=CC(=O)N(CC(=O)N[C@@H](Cc1ccc(C)cc1C)B(O)O)c1c(F)cccc1F [Compound No. 43, [(1R)-1-[[2-(2,6-difluoro-N-prop-2-enoyl-anilino)acetyl]amino]-2-(2,4-dimethylphenyl)ethyl]boronic Acid] |
|  |  |  | +++++ (Selectivity ≥ 150) | < 50 nM | > 5 µM | C=CC(=O)N(CC(=O)N[C@@H](Cc1ccccc1)B(O)O)c1ccccc1F [Compound No. 44, [(1R)-1-[[2-(2-fluoro-N-prop-2-enoyl-anilino)acetyl]amino]-2-phenyl-ethyl]boronic Acid] |
|  |  |  | +++++ (Selectivity ≥ 150) | 50 to 500 nM | > 5 µM | C=CC(=O)N(c1ccccc1)[C@H](C)C(=O)N[C@@H](Cc1ccc(C)cc1C)B(O)O [Compound No. 45, [(1R)-2-(2,4-dimethylphenyl)-1-[[(2R)-2-(N-prop-2-enoylanilino)propanoyl]amino]ethyl]boronic Acid] |
| ++ (50 ≤ Selectivity < 70) | 500 to 5000 nM | > 5 µM |  |  |  | C=CC(=O)N(c1ccccc1)[C@@H](C)C(=O)N[C@@H](Cc1ccc(C)cc1C)B(O)O [Compound No. 46, [(1R)-2-(2,4-dimethylphenyl)-1-[[(2S)-2-(N-prop-2-enoylanilino)propanoyl]amino]ethyl]boronic Acid] |
|  |  |  | +++++ (Selectivity ≥ 150) | 50 to 500 nM | > 5 µM | C=CC(=O)N(c1ccccc1)[C@H](C)C(=O)N[C@@H](Cc1ccc(C)c(C)c1)B(O)O [Compound No. 47, [(1R)-2-(3,4-dimethylphenyl)-1-[[(2R)-2-(N-prop-2-enoylanilino)propanoyl]amino]ethyl]boronic Acid] |
| ++ (50 ≤ Selectivity < 70) | 500 to 5000 nM | > 5 µM |  |  |  | C=CC(=O)N(c1ccccc1)[C@@H](C)C(=O)N[C@@H](Cc1ccc(C)c(C)c1)B(O)O [Compound No. 48, [(1R)-2-(3,4-dimethylphenyl)-1-[[(2S)-2-(N-prop-2-enoylanilino)propanoyl]amino]ethyl]boronic Acid] |
|  |  |  | ++++ (100 ≤ Selectivity < 150) | 50 to 500 nM | > 5 µM | C=CC(=O)N(C)[C@@H](C)C(=O)N[C@@H](Cc1ccc(C)cc1C)B(O)O [Compound No. 49, [(1R)-2-(2,4-dimethylphenyl)-1-[[(2S)-2-[methyl(prop-2-enoyl)amino]propanoyl]amino]ethyl]boronic Acid] |
|  |  |  | +++++ (Selectivity ≥ 150) | < 50 nM | > 5 µM | CCN(CC(=O)N[C@@H](Cc1ccc(C)cc1C)B(O)O)C(=O)/C=C/C(=O)OC [Compound No. 50, [(1R)-2-(2,4-dimethylphenyl)-1-[[2-[ethyl-[(E)-4-methoxy-4-oxo-but-2-enoyl]amino]acetyl]amino]ethyl]boronic Acid] |
|  |  |  | ++++ (100 ≤ Selectivity < 150) | 50 to 500 nM | > 5 µM | C=CC(=O)N1CCCC[C@@H]1C(=O)N[C@@H](Cc1ccc(Cl)cc1Cl)B(O)O [Compound No. 51, [(1R)-2-(2,4-dichlorophenyl)-1-[[(2R)-1-prop-2-enoylpiperidine-2-carbonyl]amino]ethyl]boronic Acid] |
|  |  |  | ++ (50 ≤ Selectivity < 70) | 500 to 5000 nM | > 5 µM | C=CC(=O)N(C)[C@H](C)C(=O)N[C@@H](Cc1ccc(C)cc1C)B(O)O [Compound No. 52, [(1R)-2-(2,4-dimethylphenyl)-1-[[(2R)-2-[methyl(prop-2-enoyl)amino]propanoyl]amino]ethyl]boronic Acid] |
